Results reported in patent US8309730B2, “Nonsteroidal compounds useful as modulators of glucocorticoid receptor AP-1 and/or NF-kappab acitivity and use thereof” (Bristol-Myers Squibb Company, priority 2007, dated 2012).

Tests used:
[1] = biological target: T1, human glucocorticoid receptor (Homo sapiens, UniProt P04150); test: Glucocorticoid Receptor Binding Assay (I), fluorescence polarization competitor kit; settings: purified human recombinant full-length GR, Fluormone GS Red, 2 h room temperature
T1 construct: purified human recombinant full-length glucocorticoid receptor (2 nM); purchased Invitrogen Part #2893
T1 sequence (P04150 1-777): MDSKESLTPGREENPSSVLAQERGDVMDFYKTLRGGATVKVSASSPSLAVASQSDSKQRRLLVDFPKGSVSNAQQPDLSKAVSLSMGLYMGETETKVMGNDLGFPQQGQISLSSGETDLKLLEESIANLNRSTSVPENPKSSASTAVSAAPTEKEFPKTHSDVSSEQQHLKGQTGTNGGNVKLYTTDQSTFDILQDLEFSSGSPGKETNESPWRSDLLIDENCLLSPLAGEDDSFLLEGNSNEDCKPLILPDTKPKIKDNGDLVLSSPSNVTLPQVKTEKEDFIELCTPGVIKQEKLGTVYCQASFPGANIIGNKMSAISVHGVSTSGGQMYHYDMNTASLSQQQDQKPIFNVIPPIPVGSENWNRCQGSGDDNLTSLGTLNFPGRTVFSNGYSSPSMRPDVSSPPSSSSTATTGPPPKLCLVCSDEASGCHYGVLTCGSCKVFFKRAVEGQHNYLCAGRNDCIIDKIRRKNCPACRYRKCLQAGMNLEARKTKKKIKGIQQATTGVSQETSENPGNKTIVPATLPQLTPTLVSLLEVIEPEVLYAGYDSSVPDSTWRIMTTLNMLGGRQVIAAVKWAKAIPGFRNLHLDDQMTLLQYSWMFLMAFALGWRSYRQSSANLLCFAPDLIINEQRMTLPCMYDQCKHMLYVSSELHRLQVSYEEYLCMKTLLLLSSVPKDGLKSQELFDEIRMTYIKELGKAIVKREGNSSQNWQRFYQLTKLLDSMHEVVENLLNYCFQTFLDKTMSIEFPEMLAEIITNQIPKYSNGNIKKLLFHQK
Method: Briefly, purified human recombinant full-length glucocorticoid receptor (2 nM) was mixed with fluorescently labeled glucocorticoid (1 nM Fluormone GS Red) in the presence or absence of test compound. After two hours incubation at room temperature in the dark, the fluorescence polarization (FP) of the sample was measured. […] Test compounds were analyzed in the concentration range from 8.5E-05 μM to 5 μM.

[2] = tested on: AP-1 induced transcriptional activity; test: Cellular Transrepressional Assay (AP-1 luciferase reporter in A549 cells); assay type: cell-based; settings: Homo sapiens, A549 cells stably transfected with pAP-1-Luc, 10 ng/ml PMA, 7 hours; for Emax: maximum inhibition, read-out: AP-1 Max % inh (Cellular Transrepression Assay); for EC50: read-out: AP-1 EC50, nM (Cellular Transrepression Assay)
Method: To measure the ability of test molecules to inhibit AP-1 induced transcriptional activity we utilized an A549 cell which was stably transfected with a plasmid containing 7×AP-1 DNA binding sites (pAP-1-Luc plasmid, Stratagene Co. La Jolla, Calif.) followed by the gene for luciferase. Cells were activated with 10 ng/ml of phorbol myristic acid (PMA) plus or minus test molecules for 7 hours. After 7 hours a luciferase reagent was added to measure luciferase enzymatic activity in the cell. After a 10 minute incubation of luciferase reagent with cells, luminescence was measured in a TopCount luminescence counter. Repression of AP-1 activity was calculated as the percentage decrease in the signal induced by PMA alone. Test molecules were analyzed in the concentration range from 0.1 nM to 40 μM. EC50 values were determined by using standard curve fitting methods such as Excel fit (Microsoft Co.).

| SMILES | Ki [1] | Emax [2] | EC50 [2] |
| --- | --- | --- | --- |
| C[C@]12Cn3cnc(-c4ccc(F)cc4)c3C=C1CCC[C@@H]2[C@@H](O)c1ccc(F)cc1 [Example 49] | 35.3 nM |  |  |
| C[C@]12Cn3cnc(-c4ccccc4)c3C=C1CCC[C@@H]2[C@H](O)c1ccccc1 (racemic) [Example 12] | 86.3 nM |  |  |
| C=CC[C@@](C)(O)[C@H]1CCCC2=Cc3c(-c4ccc(F)cc4)ncn3C[C@@]21C [Example 57] |  | 55.9% | 56.6 nM |
| C[C@]12Cn3cnc(-c4ccc(F)cc4)c3C=C1CCC[C@@H]2[C@](C)(O)c1ccc(F)cc1 [Example 48] |  | 35.6% | 11.9 nM |
| C[C@]12Cn3cnc(-c4ccc(F)cc4)c3C=C1CCC[C@@H]2[C@](C)(O)c1ccc(Cl)s1 [Example 62] |  | 61.2% | 5.48 nM |
| CC12Cn3cnc(-c4ccc(F)cc4)c3C=C1CCCC2(O)CCc1ccccc1 (racemic) [Example 102] | 19.7 nM |  |  |
| Cc1cccc([C@@](C)(O)[C@H]2CCCC3=Cc4c(-c5ccc(F)cc5)ncn4C[C@@]32C)c1 [Example 65] |  | 46.7% | 9.75 nM |
| CC1(C)COC2(CCCC3=Cc4c(-c5ccc(F)cc5)ncn4CC32C)OC1 (centres unmarked) [Example 104, 1′-(4-Fluorophenyl)-5,5,5a′-trimethyl-5a′,7′,8′,9′-tetrahydro-5′H-spiro[[1,3]dioxane-2,6′-imidazo[1,5-b]isoquinoline]] |  | 32.4% | 877 nM |
| C[C@]12Cn3cnc(-c4ccccc4)c3C=C1CCC[C@@H]2[C@@H](O)c1ccccc1 (single isomer, unassigned) [Example 14] | 65 nM |  |  |
| CC(C)(O)c1cccc([C@@](C)(O)[C@H]2CCCC3=Cc4c(-c5ccc(F)cc5)ncn4C[C@@]32C)c1 [Example 9, 2-(3-((S)-1-((5aR,6S)-1-(4-Fluorophenyl)-5a-methyl-5,5a,6,7,8,9-hexahydroimidazo[1,5-b]isoquinolin-6-yl)-1-hydroxyethyl)phenyl)propan-2-ol] |  | 34.3% | 144 nM |
| CNC(=O)c1ccc([C@@](C)(O)[C@H]2CCCC3=Cc4c(-c5ccc(F)cc5)ncn4C[C@@]32C)s1 [Example 100] |  | 30.7% | 573 nM |
| C[C@]12Cn3cnc(-c4ccc(F)cc4)c3C=C1CCC[C@@H]2[C@](C)(O)C(F)(F)F [Example 10, (S)-1,1,1-Trifluoro-2-((5aR,6S)-1-(4-fluorophenyl)-5a-methyl-5,5a,6,7,8,9-hexahydroimidazo[1,5-b]isoquinolin-6-yl)propan-2-ol] |  | 31.3% | 30.9 nM |
| CN(C)C(=O)c1ccc([C@@](C)(O)[C@H]2CCCC3=Cc4c(-c5ccc(F)cc5)ncn4C[C@@]32C)s1 [Example 3, 5-((S)-1-((5aR,6S)-1-(4-Fluorophenyl)-5a-methyl-5,5a,6,7,8,9-hexahydroimidazo[1,5-b]isoquinolin-6-yl)-1-hydroxyethyl)-N,N-dimethylthiophene-2-carboxamide] |  | 29.5% | 267 nM |
| CCc1ccccc1[C@@](C)(O)[C@H]1CCCC2=Cc3c(-c4ccc(F)cc4)ncn3C[C@@]21C [Example 75] |  | 47.1% | 41.6 nM |
| C[C@]12Cn3cnc(-c4ccc(F)cc4)c3C=C1CCC[C@@H]2[C@](C)(O)c1ccccc1 [Example 71] |  | 32.5% | 3.02 nM |
| C[C@]12Cn3cnc(-c4ccccc4)c3C=C1CCC[C@@H]2[C@](C)(O)c1csc2ccccc12 (single isomer, unassigned) [Example 31] |  | 41.2% | 181 nM |
| Cc1ccccc1[C@@](C)(O)[C@H]1CCCC2=Cc3c(-c4ccc(F)cc4)ncn3C[C@@]21C [Example 66] |  | 42.1% | 4.6 nM |
| C[C@]12Cn3cnc(-c4ccc(F)cc4)c3C=C1CCC[C@@H]2[C@](C)(O)C1CCCCC1 [Example 67] |  | 44.3% | 1.99 nM |
| CC(C)(C)C[C@@](C)(O)[C@H]1CCCC2=Cc3c(-c4ccc(F)cc4)ncn3C[C@@]21C [Example 63] |  | 47.5% | 31.5 nM |
| C[C@]12Cn3cnc(-c4ccc(F)cc4)c3C=C1CCC[C@@H]2[C@](C)(O)Cc1ccc(F)cc1 [Example 55] |  | 53.7% | 84.2 nM |

| SMILES | Ki [1] | Emax [2] | EC50 [2] |
| --- | --- | --- | --- |
| C[C@]12Cn3cnc(-c4ccc(F)cc4)c3C=C1CCC[C@@H]2[C@](C)(O)C1CC1 [Example 58] |  | 35.8% | 36.8 nM |
| CCCC[C@@](C)(O)[C@H]1CCCC2=Cc3c(-c4ccc(F)cc4)ncn3C[C@@]21C [Example 68] |  | 40.8% | 33.9 nM |
| C[C@]12Cn3cnc(-c4ccc(F)cc4)c3C=C1CCC[C@@H]2[C@](C)(O)c1ccc(Cl)cc1 [Example 53] |  | 44.6% | 63.2 nM |
| C[C@]12Cn3cnc(-c4ccc(F)cc4)c3C=C1CCC[C@@H]2[C@](C)(O)c1cccs1 [Example 1, (S)-1-((5aR,6S)-1-(4-Fluorophenyl)-5a-methyl-5,5a,6,7,8,9-hexahydroimidazo[1,5-b]isoquinolin-6-yl)-1-(thiophen-2-yl)ethanol] |  | 38.1% | 21.4 nM |
| C[S+]([O-])c1cccc([C@@](C)(O)[C@H]2CCCC3=Cc4c(-c5ccc(F)cc5)ncn4C[C@@]32C)c1 (stereo partly drawn) [Example 8b, (1S)-1-((5aR,6S)-1-(4-fluorophenyl)-5a-methyl-5,5a,6,7,8,9-hexahydroimidazo[1,5-b]isoquinolin-6-yl)-1-(3-(methylsulfinyl)phenyl)ethanol] |  | 40.7% | 236 nM |
| C[C@]12Cn3cnc(-c4ccc(F)cc4)c3C=C1CCC[C@@H]2CCNc1nncs1 [Example 5, N-(2-((5aR,6R)-1-(4-Fluorophenyl)-5a-methyl-5,5a,6,7,8,9-hexahydroimidazo[1,5-b]isoquinolin-6-yl)ethyl)-1,3,4-thiadiazol-2-amine] |  | 22.6% | 98 nM |
| C[C@]12Cn3cnc(-c4ccc(F)cc4)c3C=C1CCC[C@@H]2[C@](C)(O)c1ccc(C(=O)O)s1 [Example 99] |  | 43.9% | 472 nM |
| Cc1ccc([C@@](C)(O)[C@H]2CCCC3=Cc4c(-c5ccc(F)cc5)ncn4C[C@@]32C)cc1 [Example 64] |  | 41.9% | 4.26 nM |
| C[C@]12Cn3cnc(-c4ccc(F)cc4)c3C=C1CCC[C@@H]2[C@](C)(O)c1ccsc1 [Example 54] |  | 42.7% | 4.67 nM |
| C[C@]12Cn3cnc(-c4ccc(F)cc4)c3C=C1CCC[C@@H]2[C@](C)(O)C1CCOCC1 [Example 96] |  | 42% | 56.5 nM |
| Cc1ccc([C@@](C)(O)[C@H]2CCCC3=Cc4c(-c5ccc(F)cc5)ncn4C[C@@]32C)s1 [Example 60] |  | 48.3% | 31.3 nM |
| Cc1ccc([C@@](C)(O)[C@H]2CCCC3=Cc4c(-c5ccc(F)cc5)ncn4C[C@@]32C)cc1F [Example 74] |  | 34.5% | 14.3 nM |
| C[C@]12Cn3cnc(-c4ccc(F)cc4)c3C=C1CCC[C@@H]2[C@](C)(O)c1ccc(F)c(Cl)c1 [Example 56] |  | 39.6% | 19.3 nM |
| COc1cccc([C@@](C)(O)[C@H]2CCCC3=Cc4c(-c5ccc(F)cc5)ncn4C[C@@]32C)c1 [Example 97] |  | 39.6% | 95 nM |
| C[C@]12Cn3cnc(-c4ccccc4)c3C=C1CCC[C@@H]2[C@](C)(O)c1csc2ccccc12 (racemic) [Example 15] |  | 42.7% | 145 nM |
| Cc1ccsc1[C@@](C)(O)[C@H]1CCCC2=Cc3c(-c4ccc(F)cc4)ncn3C[C@@]21C [Example 61] |  | 58.8% | 11.6 nM |
| CSc1cccc([C@@](C)(O)[C@H]2CCCC3=Cc4c(-c5ccc(F)cc5)ncn4C[C@@]32C)c1 [Example 89] |  | 45.3% | 20.8 nM |
| C[C@]12Cn3cnc(-c4ccc(F)cc4)c3C=C1CCC[C@@H]2[C@](C)(O)c1cccc(C#N)c1 [Example 83] |  | 35.6% | 19.2 nM |
| COC(=O)c1ccc([C@@](C)(O)[C@H]2CCCC3=Cc4c(-c5ccc(F)cc5)ncn4C[C@@]32C)s1 [Example 92] |  | 47.4% | 24.7 nM |
